The values that follow come from publication PMC10674894 (Viruses, 2023).

For series [1], the system named is Vero cells. Nature of the series: Cytotoxicity MTT assay in Vero cells (MNTD, CC50). It counts as cell-based, African green monkey. As to conditions: Table S1; Vero cells. On the technique in general: Tetrazolium dyes change colour on reduction, which living cells bring about.
Series [2] relates to CHIKV DRDE-07. Put plainly: In vitro screening against CHIKV (CPE inhibition and MTT cell viability). It counts as cell-based, chikungunya virus. Conditions: Table S1, CHIKV-infected Vero cells; for % Cell viability: 72 hpi, MTT assay; for CPE: arbitrary score of cytopathic effect at >48 hpi.

SMILES strings stand for the structures.

In series [1], `C=CCOC(=O)C1=C(C)NC(=O)NC1c1ccc(OC)cc1` (stereo not drawn) [DCR98, prop-2-en-1-yl 4-(4-methoxyphenyl)-6-methyl-2-oxo-1,2,3,4-tetrahydropyrimidine-5-carboxylate] gave an MNTD of 413.46 µM. For the same compound, in series [2], the “% Cell viability” value stood at 12.66% and the CPE result is on record as “++++ (>60% (++++))”.

Turning to `COc1ccc(C2NC(=O)NC(C)=C2C(=O)OCC(C)C)cc1` (stereo not drawn) [DCR99, 2-methylpropyl 4-(4-methoxyphenyl)-6-methyl-2-oxo-1,2,3,4-tetrahydropyrimidine-5-carboxylate], in series [1], the MNTD is recorded as 392.64 µM. Besides, in series [2], the “% Cell viability” value is reported as 11.29% and the CPE entry is reported as “++++ (>60% (++++))”.

For the compound `COc1ccc(C2NC(=O)NC(C)=C2C(=O)OCc2ccc(Cl)cc2)cc1` (stereo not drawn) [DCR100, (4-chlorophenyl)methyl 4-(4-methoxyphenyl)-6-methyl-2-oxo-1,2,3,4-tetrahydropyrimidine-5-carboxylate], in series [1], the MNTD is recorded as 323.15 µM. For the same compound, in series [2], the “% Cell viability” value came out at 12.84% and the CPE entry is reported as “++++ (>60% (++++))”.

In turn, `COc1ccc(COC(=O)C2=C(C)NC(=O)NC2c2ccc(OC)cc2)cc1` (stereo not drawn) [DCR101, 4-methoxybenzyl 4-(4-methoxyphenyl)-6-methyl-2-oxo-1,2,3,4-tetrahydropyrimidine-5-carboxylate] displayed an MNTD in series [1] of 250 µM. For the same compound, in series [2], the “% Cell viability” value worked out at 7.02% and the CPE entry is listed as “++++ (>60% (++++))”.

Compound `COc1ccc(C2NC(=O)NC(C)=C2C(=O)OCc2ccccc2)cc1` (stereo not drawn) [DCR102, benzyl 4-(4-methoxyphenyl)-6-methyl-2-oxo-1,2,3,4-tetrahydropyrimidine-5-carboxylate] registered an MNTD in series [1] of 250 µM. In series [2], the “% Cell viability” value is 8.11% and the CPE result was “++++ (>60% (++++))”.

In series [1], `C=C(C)CCOC(=O)C1=C(C)NC(=O)NC1c1ccc(OC)cc1` (stereo not drawn) [DCR103, 3-methylbut-3-en-1-yl 4-(4-methoxyphenyl)-6-methyl-2-oxo-1,2,3,4-tetrahydropyrimidine-5-carboxylate] came in with an MNTD of 250 µM. Besides, in series [2], the “% Cell viability” value amounted to 21.11% and the CPE result is given as “++++ (>60% (++++))”.

In series [1], `CC1=C(C(=O)OCC[N+](C)(C)C)C(c2ccc([N+](=O)[O-])cc2)NC(=O)N1` (stereo not drawn) [DCR104, N,N,N-trimethyl-2-({[6-methyl-4-(4-nitrophenyl)-2-oxo-1,2,3,4-tetrahydropyrimidin-5-yl]carbonyl}oxy)ethanaminium] displayed an MNTD of 125 µM. In series [2], the “% Cell viability” value worked out at 9.09% and the CPE result is “++++ (>60% (++++))”.

In series [1], `CC1=C(C(=O)OCC[N+](C)(C)C)C(c2ccc(C)cc2)NC(=O)N1` (stereo not drawn) [DCR105, N,N,N-trimethyl-2-({[6-methyl-4-(4-methylphenyl)-2-oxo-1,2,3,4-tetrahydropyrimidin-5-yl]carbonyl}oxy)ethanaminium] yielded an MNTD of 125 µM. Moreover, in series [2], the “% Cell viability” value is on record as 2.45% and the CPE entry is “++++ (>60% (++++))”.

The compound `CC1=C(C(=O)OCC[N+](C)(C)C)C(c2ccc(Cl)cc2)NC(=O)N1` (stereo not drawn) [DCR106, 2-({[4-(4-chlorophenyl)-6-methyl-2-oxo-1,2,3,4-tetrahydropyrimidin-5-yl]carbonyl}oxy)-N,N,N-trimethylethanaminium] displayed an MNTD in series [1] of 62.5 µM. In series [2], the “% Cell viability” value was 3.33% and the CPE entry is “++++ (>60% (++++))”.

Consider `COc1ccc(C2NC(=O)NC(C)=C2C(=O)OCC[N+](C)(C)C)cc1` (stereo not drawn) [DCR107, {2‐[4‐(4‐methoxyphenyl)‐6‐methyl‐2‐oxo‐1,2,3,4‐tetrahydropyrimidine‐5‐carbonyloxy]ethyl}trimethylazanium], for which the MNTD in series [1] was found to be 62.5 µM. For the same compound, in series [2], the “% Cell viability” value was found to be 13.22% and the CPE result was “++++ (>60% (++++))”.

In the case of `CC1=C(C(=O)OCCN(C)C)C(c2ccc(Cl)cc2)NC(=O)N1` (stereo not drawn) [DCR108, 2-(dimethylamino)ethyl 4-(4-chlorophenyl)-6-methyl-2-oxo-1,2,3,4-tetrahydropyrimidine-5-carboxylate], the MNTD in series [1] was 62.5 µM. In series [2], the “% Cell viability” value came out at 13.99% and the CPE result is on record as “++++ (>60% (++++))”.

Turning to `CC1=C(C(=O)OCCN(C)C)C(c2ccc(N(C)C)cc2)NC(=O)N1` (stereo not drawn) [DCR109, 2‐(dimethylamino)ethyl 4‐[4‐(dimethylamino)phenyl]‐6‐methyl‐2‐oxo‐1,2,3,4‐tetrahydropyrimidine‐5‐carboxylate], the MNTD in series [1] worked out at 62.5 µM. In series [2], the “% Cell viability” value is 15.11% and the CPE entry is “++++ (>60% (++++))”.

In series [1], `CC1=C(C(=O)OCCN(C)C)C(c2ccc(O)cc2)NC(=O)N1` (stereo not drawn) [DCR110, 2-(dimethylamino)ethyl 4-(4-hydroxyphenyl)-6-methyl-2-oxo-1,2,3,4-tetrahydropyrimidine-5-carboxylate] yielded an MNTD of 62.5 µM. For the same compound, in series [2], the “% Cell viability” value worked out at 12.01% and the CPE entry is “++++ (>60% (++++))”.

In series [1], `CC1=C(C(=O)OCCN(C)C)C(c2ccc(N(C)C)cc2)NC(=S)N1` (stereo not drawn) [DCR111, 2‐(dimethylamino)ethyl 4‐[4‐(dimethylamino)phenyl]‐6‐methyl‐2‐sulfanylidene‐1,2,3,4‐tetrahydropyrimidine‐5‐carboxylate] gave an MNTD of 62.5 µM. In series [2], the “% Cell viability” value came out at 10.08% and the CPE result is “++++ (>60% (++++))”.

Take `COc1ccc(C2NC(=O)NC(C)=C2C(=O)OCCN(C)C)cc1` (stereo not drawn) [DCR112, 2-(dimethylamino)ethyl 4-(4-methoxyphenyl)-6-methyl-2-oxo-1,2,3,4-tetrahydropyrimidine-5-carboxylate]: the MNTD in series [1] is listed as 62.5 µM. Besides, in series [2], the “% Cell viability” value amounted to 2.09% and the CPE result was “++++ (>60% (++++))”.

In turn, `COc1ccc(C2c3c(ccc4ccccc34)Oc3ccc4ccccc4c32)cc1` [DCR113, 2‐(4‐methoxyphenyl)‐13‐oxapentacyclo[12.8.0.0³,¹².0⁴,⁹.0¹⁷,²²]docosa‐1(14),3,5,7,9,11,15,17(22),18,20‐decaene] returned an MNTD in series [1] of 31.25 µM. In addition, in series [2], the “% Cell viability” value came out at 5.04% and the CPE entry is given as “++++ (>60% (++++))”.

`CCOc1ccc(C2c3c(ccc4ccccc34)Oc3ccc4ccccc4c32)cc1` [DCR114, 2‐(4‐ethoxyphenyl)‐13‐oxapentacyclo[12.8.0.0³,¹².0⁴,⁹.0¹⁷,²²]docosa‐1(14),3,5,7,9,11,15,17(22),18,20‐decaene] gave an MNTD in series [1] of 31.25 µM. Further, in series [2], the “% Cell viability” value stood at 4.05% and the CPE entry is reported as “++++ (>60% (++++))”.

With `Clc1ccc(C2c3c(ccc4ccccc34)Oc3ccc4ccccc4c32)cc1` [DCR115, 2‐(4‐chlorophenyl)‐13‐oxapentacyclo[12.8.0.0³,¹².0⁴,⁹.0¹⁷,²²]docosa‐1(14),3,5,7,9,11,15,17(22),18,20‐decaene], in series [1], the MNTD is on record as 125 µM. For the same compound, in series [2], the “% Cell viability” value is recorded as 17.1% and the CPE result is “++++ (>60% (++++))”.

As for `Clc1cccc(C2c3c(ccc4ccccc34)Oc3ccc4ccccc4c32)c1` [DCR116, 2‐(3‐chlorophenyl)‐13‐oxapentacyclo[12.8.0.0³,¹².0⁴,⁹.0¹⁷,²²]docosa‐1(14),3,5,7,9,11,15,17(22),18,20‐decaene], the MNTD in series [1] worked out at 31.25 µM. Also, in series [2], the “% Cell viability” value came to 10.84% and the CPE result is reported as “++++ (>60% (++++))”.

In turn, `Fc1ccc(C2c3c(ccc4ccccc34)Oc3ccc4ccccc4c32)cc1` [DCR117, 2‐(4‐fluorophenyl)‐13‐oxapentacyclo[12.8.0.0³,¹².0⁴,⁹.0¹⁷,²²]docosa‐1(14),3,5,7,9,11,15,17(22),18,20‐decaene] returned an MNTD in series [1] of 125 µM. Besides, in series [2], the “% Cell viability” value is reported as 14.01% and the CPE entry is given as “++++ (>60% (++++))”.

The compound `CCc1ccc(C2c3c(ccc4ccccc34)Oc3ccc4ccccc4c32)cc1` [DCR118, 2‐(4‐ethylphenyl)‐13‐oxapentacyclo[12.8.0.0³,¹².0⁴,⁹.0¹⁷,²²]docosa‐1(14),3,5,7,9,11,15,17(22),18,20‐decaene] yielded an MNTD in series [1] of 31.25 µM. In series [2], the “% Cell viability” value came out at 14.23% and the CPE entry was “++++ (>60% (++++))”.

In turn, `Fc1cccc(C2c3c(ccc4ccccc34)Oc3ccc4ccccc4c32)c1` [DCR119, 2‐(3‐fluorophenyl)‐13‐oxapentacyclo[12.8.0.0³,¹².0⁴,⁹.0¹⁷,²²]docosa‐1(14),3,5,7,9,11,15,17(22),18,20‐decaene] yielded an MNTD in series [1] of 31.25 µM. Further, in series [2], the “% Cell viability” value stood at 18.74% and the CPE entry is listed as “++++ (>60% (++++))”.

In turn, `CC(C)C1c2c(ccc3ccccc23)Oc2ccc3ccccc3c21` [DCR120, 2‐(propan‐2‐yl)‐13‐oxapentacyclo[12.8.0.0³,¹².0⁴,⁹.0¹⁷,²²]docosa‐1(14),3,5,7,9,11,15,17(22),18,20‐decaene] had an MNTD in series [1] of 31.25 µM. Further, in series [2], the “% Cell viability” value came out at 19.24% and the CPE result is on record as “++++ (>60% (++++))”.

With `c1cncc(C2c3c(ccc4ccccc34)Oc3ccc4ccccc4c32)c1` [DCR121, 3‐{13‐oxapentacyclo[12.8.0.0³,¹².0⁴,⁹.0¹⁷,²²]docosa‐1(14),3,5,7,9,11,15,17(22),18,20‐decaen‐2‐yl}pyridine], the MNTD in series [1] is recorded as 31.25 µM. Further, in series [2], the “% Cell viability” value is reported as 8.03% and the CPE result is given as “++++ (>60% (++++))”.

In series [1], `CC1(C)CC(=O)C2=C(C1)OC1=C(C(=O)CC(C)(C)C1)C2c1ccc(Cl)cc1` [DCR122, 9‐(4‐chlorophenyl)‐3,3,6,6‐tetramethyl‐2,3,4,5,6,7,8,9‐octahydro‐1H‐xanthene‐1,8‐dione] came in with an MNTD of 31.25 µM. In addition, in series [2], the “% Cell viability” value is given as 11.09% and the CPE entry is “++++ (>60% (++++))”.

For the compound `CC1(C)CC(=O)C2=C(C1)OC1=C(C(=O)CC(C)(C)C1)C2c1cccc(O)c1` [DCR123, 9‐(3‐hydroxyphenyl)‐3,3,6,6‐tetramethyl‐2,3,4,5,6,7,8,9‐octahydro‐1H‐xanthene‐1,8‐dione], in series [1], the MNTD was 125 µM. For the same compound, in series [2], the “% Cell viability” value stood at 12.01% and the CPE entry was “++++ (>60% (++++))”.
